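Grown in 96-well plates, cells were treated for 48 hours with each compound at five concentrations. Insufficient inhibition: endpoint recorded as highest concentration tested. At the TGI there is no net growth.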
Key:
Assay in all cases: NCI tumour cell line growth inhibition, 48 h
[1] = test system: HOP-62 NSCLC
[2] = test system: RPMI-8226 leukemia
[3] = test system: T-47D breast
[4] = test system: NCI-H460 lung
[5] = test system: NCI-H226 lung
[6] = test system: SNB-19 CNS
[7] = test system: SF-295 CNS
[8] = test system: NCI/ADR-RES ovarian
[9] = test system: U251 CNS
[10] = test system: UACC-257 melanoma
[11] = test system: MALME-3M melanoma
[12] = test system: HCT-116 colon
[13] = test system: OVCAR-4 ovarian
[14] = test system: UO-31 renal
[15] = test system: ACHN renal
[16] = test system: M14 melanoma
[17] = test system: K-562 leukemia
[18] = test system: BT-549 breast
[19] = test system: HL-60(TB) leukemia
[20] = test system: SK-MEL-28 melanoma
[21] = test system: MDA-MB-435
[22] = test system: TK-10 renal
[23] = test system: NCI-H23 lung
[24] = test system: UACC-62 melanoma
[25] = test system: SN12C renal
[26] = test system: SK-MEL-5 melanoma
[27] = test system: KM12 colon
[28] = test system: DU-145 prostate
[29] = test system: MDA-MB-231 breast
[30] = test system: MOLT-4 leukemia
[31] = test system: HOP-92 NSCLC
[32] = test system: HS 578T breast
[33] = test system: MDA-N
[34] = test system: HT29 colon
[35] = test system: LOX IMVI melanoma
[36] = test system: A549 NSCLC
[37] = test system: 786-0 renal
[38] = test system: COLO 205 colon
[39] = test system: SW-620 colon
[40] = test system: HCT-15 colon
[41] = test system: SR leukemia
[42] = test system: EKVX NSCLC
[43] = test system: RXF 393 renal
[44] = test system: IGROV1 ovarian
[45] = test system: CCRF-CEM leukemia
[46] = test system: PC-3 prostate
[47] = test system: HCC-2998 colon
[48] = test system: MCF7 breast
[49] = test system: SNB-75 CNS
[50] = test system: SK-OV-3 ovarian
[51] = test system: SF-539 CNS
[52] = test system: SF-268 CNS
[53] = test system: OVCAR-3 ovarian
[54] = test system: OVCAR-5 ovarian
[55] = test system: OVCAR-8 ovarian
[56] = test system: NCI-H522 lung
[57] = test system: A498 renal
[58] = test system: SK-MEL-2 melanoma
[59] = test system: CAKI-1 renal
[60] = test system: DMS 273 small cell lung
[61] = test system: KM20L2 colon
[62] = test system: SNB-78 CNS
[63] = test system: DLD-1 colon
[64] = test system: LXFL 529 NSCLC
[65] = test system: M19-MEL melanoma

Structure (SMILES): Cn1cc(NC(=O)Nc2cc(C(=O)Nc3cc(C(=O)Nc4ccc5cc(S(=O)(=O)O)cc(S(=O)(=O)O)c5c4)n(C)c3)n(C)c2)cc1C(=O)Nc1cc(C(=O)Nc2ccc3cc(S(=O)(=O)O)cc(S(=O)(=O)O)c3c2)n(C)c1
- TGI [1]: > 100 µM
- TGI [2]: > 100 µM
- TGI [3]: > 100 µM
- TGI [4]: > 100 µM
- TGI [5]: > 100 µM
- TGI [6]: > 100 µM
- TGI [7]: > 100 µM
- TGI [8]: > 100 µM
- TGI [9]: > 100 µM
- TGI [10]: > 100 µM
- TGI [11]: > 100 µM
- TGI [12]: > 100 µM
- TGI [13]: > 100 µM
- TGI [14]: > 100 µM
- TGI [15]: > 100 µM
- TGI [16]: > 100 µM
- TGI [17]: > 100 µM
- TGI [18]: > 100 µM
- TGI [19]: > 100 µM
- TGI [20]: > 100 µM
- TGI [21]: > 100 µM
- TGI [22]: > 100 µM
- TGI [23]: > 100 µM
- TGI [24]: > 100 µM
- TGI [25]: > 100 µM
- TGI [26]: > 100 µM
- TGI [27]: > 100 µM
- TGI [28]: > 100 µM
- TGI [29]: > 100 µM
- TGI [30]: > 100 µM
- TGI [31]: > 100 µM
- TGI [32]: > 100 µM
- TGI [33]: > 100 µM
- TGI [34]: > 100 µM
- TGI [35]: > 100 µM
- TGI [36]: > 100 µM
- TGI [37]: > 100 µM
- TGI [38]: > 100 µM
- TGI [39]: > 100 µM
- TGI [40]: > 100 µM
- TGI [41]: > 100 µM
- TGI [42]: > 100 µM
- TGI [43]: > 100 µM
- TGI [44]: > 100 µM
- TGI [45]: > 100 µM
- TGI [46]: > 100 µM
- TGI [47]: > 100 µM
- TGI [48]: > 100 µM
- TGI [49]: > 100 µM
- TGI [50]: > 100 µM
- TGI [51]: > 100 µM
- TGI [52]: > 100 µM
- TGI [53]: > 100 µM
- TGI [54]: > 100 µM
- TGI [55]: > 100 µM
- TGI [56]: > 100 µM

Structure (SMILES): N#Cc1ccc(C2ON=C(c3ccccc3)N2C23CC4CC(CC(C4)C2)C3)cc1 (configuration not stated)
- TGI [1]: > 10 µM
- TGI [2]: > 10 µM
- TGI [3]: > 10 µM
- TGI [4]: > 10 µM
- TGI [5]: > 10 µM
- TGI [6]: > 10 µM
- TGI [7]: > 10 µM
- TGI [8]: > 10 µM
- TGI [9]: > 10 µM
- TGI [10]: > 10 µM
- TGI [57]: > 10 µM
- TGI [11]: > 10 µM
- TGI [12]: > 10 µM
- TGI [13]: > 10 µM
- TGI [15]: > 10 µM
- TGI [16]: > 10 µM
- TGI [17]: > 10 µM
- TGI [18]: > 10 µM
- TGI [19]: > 10 µM
- TGI [20]: > 10 µM
- TGI [21]: > 10 µM
- TGI [22]: > 10 µM
- TGI [23]: > 10 µM
- TGI [24]: > 10 µM
- TGI [25]: > 10 µM
- TGI [26]: > 10 µM
- TGI [27]: > 10 µM
- TGI [28]: > 10 µM
- TGI [58]: > 10 µM
- TGI [29]: > 10 µM
- TGI [30]: > 10 µM
- TGI [31]: > 10 µM
- TGI [32]: > 10 µM
- TGI [33]: > 10 µM
- TGI [34]: > 10 µM
- TGI [35]: > 10 µM
- TGI [36]: > 10 µM
- TGI [37]: > 10 µM
- TGI [38]: > 10 µM
- TGI [59]: > 10 µM
- TGI [39]: > 10 µM
- TGI [40]: > 10 µM
- TGI [41]: > 10 µM
- TGI [42]: > 10 µM
- TGI [43]: > 10 µM
- TGI [44]: > 10 µM
- TGI [45]: > 10 µM
- TGI [46]: > 10 µM
- TGI [47]: > 10 µM
- TGI [48]: > 10 µM
- TGI [49]: > 10 µM
- TGI [50]: > 10 µM
- TGI [51]: > 10 µM
- TGI [52]: > 10 µM
- TGI [53]: > 10 µM
- TGI [54]: > 10 µM
- TGI [55]: > 10 µM
- TGI [56]: > 10 µM

Structure (SMILES): C/C(=C/CC[C@](C)(OC1OC(CO)C(O)C(O)C1O)[C@H]1CC[C@]2(C)[C@@H]1CC[C@@H]1[C@@]3(C)CC[C@H](O)C(C)(C)[C@@H]3C[C@H](O)[C@]12CO)CO (some centres not stated)
- TGI [1]: > 100 µM
- TGI [2]: > 100 µM
- TGI [3]: > 100 µM
- TGI [4]: > 100 µM
- TGI [5]: > 100 µM
- TGI [6]: > 100 µM
- TGI [7]: > 100 µM
- TGI [8]: > 100 µM
- TGI [9]: > 100 µM
- TGI [10]: > 100 µM
- TGI [57]: > 100 µM
- TGI [11]: > 100 µM
- TGI [12]: > 100 µM
- TGI [13]: > 100 µM
- TGI [14]: > 100 µM
- TGI [15]: > 100 µM
- TGI [16]: > 100 µM
- TGI [17]: > 100 µM
- TGI [18]: > 100 µM
- TGI [19]: > 100 µM
- TGI [20]: > 100 µM
- TGI [21]: > 100 µM
- TGI [22]: > 100 µM
- TGI [23]: > 100 µM
- TGI [24]: > 100 µM
- TGI [25]: > 100 µM
- TGI [26]: > 100 µM
- TGI [27]: > 100 µM
- TGI [28]: > 100 µM
- TGI [29]: > 100 µM
- TGI [30]: > 100 µM
- TGI [31]: > 100 µM
- TGI [32]: > 100 µM
- TGI [33]: > 100 µM
- TGI [34]: > 100 µM
- TGI [35]: > 100 µM
- TGI [36]: > 100 µM
- TGI [37]: > 100 µM
- TGI [38]: > 100 µM
- TGI [59]: > 100 µM
- TGI [39]: > 100 µM
- TGI [40]: > 100 µM
- TGI [41]: > 100 µM
- TGI [42]: > 100 µM
- TGI [43]: > 100 µM
- TGI [44]: > 100 µM
- TGI [45]: > 100 µM
- TGI [46]: > 100 µM
- TGI [48]: > 100 µM
- TGI [49]: > 100 µM
- TGI [50]: > 100 µM
- TGI [51]: > 100 µM
- TGI [52]: > 100 µM
- TGI [53]: > 100 µM
- TGI [54]: > 100 µM
- TGI [55]: > 100 µM
- TGI [56]: > 100 µM

Structure (SMILES): Cc1ccc(C(=O)NC2CCCCC2)cc1N=NN(C)C
- TGI [1]: > 100 µM
- TGI [4]: > 100 µM
- TGI [6]: > 100 µM
- TGI [60]: > 100 µM
- TGI [7]: > 100 µM
- TGI [9]: > 100 µM
- TGI [10]: > 100 µM
- TGI [12]: > 100 µM
- TGI [13]: > 100 µM
- TGI [14]: > 100 µM
- TGI [15]: > 100 µM
- TGI [16]: > 100 µM
- TGI [20]: > 100 µM
- TGI [61]: > 100 µM
- TGI [22]: > 100 µM
- TGI [23]: > 100 µM
- TGI [24]: > 100 µM
- TGI [25]: > 100 µM
- TGI [26]: > 100 µM
- TGI [27]: > 100 µM
- TGI [58]: > 100 µM
- TGI [31]: > 100 µM
- TGI [62]: > 100 µM
- TGI [63]: > 100 µM
- TGI [34]: > 100 µM
- TGI [35]: > 100 µM
- TGI [36]: > 100 µM
- TGI [37]: > 100 µM
- TGI [59]: > 100 µM
- TGI [39]: > 100 µM
- TGI [40]: > 100 µM
- TGI [42]: > 100 µM
- TGI [44]: > 100 µM
- TGI [64]: > 100 µM
- TGI [47]: > 100 µM
- TGI [65]: > 100 µM
- TGI [51]: > 100 µM
- TGI [52]: > 100 µM
- TGI [53]: > 100 µM
- TGI [55]: > 100 µM
- TGI [56]: > 100 µM

— PubChem BioAssay (NCI)
